One series concerns the target human MALT-1 protein (Homo sapiens (Human), UniProt Q9UDY8). Put plainly: MALT-1 Biochemical Assay (Quench-FRET enzyme assay). Particulars: human MALT-1 6 nM, substrate 2 μM, 40 min preincubation. From the text: A Quenched Fluorescence Resonance Energy Transfer (Quench-FRET) enzyme assay was used to test the ability of exemplary MALT-1 inhibitors Example 1 to Example 39 to inhibit the cleavage of a MALT1 specific quenched fluorescent substrate of sequence [TAMRA-PEG2-Leu-Val-Ser-Arg-Gly-Ala-Ala-Ser-PEG2-K(QSY7) by human MALT-1 protein; where TAMRA is 6-carboxytetramethylrhodamine, PEG2 is 2-(2-(2-aminoethoxy)ethoxyamide linker, QSY7 is a non-fluorescent quenching dye (Thermo-Fisher catalog #Q10193). The assay was performed by pre-dispensing compounds into 384 well Proxiplates™ (PE 6008289). Human MALT-1 (6 nM) was prepared using the assay buffer (25 mM HEPES pH 7.5, 1 mM ethylenediaminetetraacetic acid, 0.8 M sodium citrate, 0.005% Bovine serum albumin (BSA), 2 mM dithiothreitol (DTT)) and added to the compound plates. The plates were incubated 40 minutes at room temperature. The reaction was carried out by adding the substrate (2 μM) to the plates and incubating for 60 minutes at room temperature. A fluorescence readout was then measured using a PE EnVision® reader (Ex.535/Em.590). […] EC50 is defined as the half maximal effective concentration of compound to inhibit MALT-1 protease activity.

The test system of another series is OCI-LY3 IL6. The series is described as follows: MALT-1 Cell IL-6 AlphaLISA Assay. The class given is cell-based. Particulars: Homo sapiens; OCI-LY3 cells, 48 hours incubation; read-out: OCI-LY3 IL6 48 hour Inhibition EC50. On the procedure:
The following MALT-1 Cell Interleukin-6 (IL-6) AlphaLISA assay was conducted using a Perkin Elmer® IL-6 AlphaLISA® detection kit (PE AL223). The IL-6 detection assay is a homogeneous immunoassay that detects human IL-6 present in the cell culture medium in the MALT-1 dependent human ABC-DLBCL cell line, OCI-LY3. Compounds were pre-dispensed into Black 384w microtiter plates (Greiner, 781090) from 30 μM to 1.5 nM. Viable OCI-LY3 cells were then seeded on top of compounds at a seeding density of 50,000 cells/mL. Plates were then placed into 37° C. incubators for 48 hours. After 48 hours incubation, 2 μL of cell medium from each well was transferred into white ProxiPlates™ (PE 6008289). A fresh mix of AlphaLISA Acceptor beads (10 μg/mL) and Biotinylated IL-6 Antibody (1 nM) was made in AlphaLISA Immunoassay buffer and added to all wells (4 μL). The plates were incubated for 60 minutes at room temperature. Streptavidin donor beads (40 μg/mL) were prepared using the assay buffer and added to all wells (5 The plates were incubated for 30 minutes at room temperature and read using PE EnVision® reader. Results are shown in Table 3.
On the technique in general: Alpha assays give light when donor and acceptor beads are brought close together.

The subject of another series is CYP 3A4 mRNA. Put plainly: CYP3A4 Induction Assay (qPCR, human hepatocytes). Particulars: 10 μM compound; for CYP3A4 % of positive control (%): relative to rifampicin 10 μM. The format is in vitro ADME. How it is done: (§1) CYP induction by compounds of the Examples was evaluated in vitro by determining the expression levels of CYP 3A4 mRNA using the qPCR (quantitative polymerase chain reaction) assay. On day one, cryopreserved human hepatocytes were thawed in prewarmed (37° C.) thawing medium (cryopreserved hepatocyte recovery medium, Gibco™ CM 7000; Thermo Fisher Scientific), centrifuged (1000 g for 10 minutes) and resuspended in plating medium (Gibco™ CM3000—Williams Medium E supplemented with hepatocytes plating supplement pak-serum containing; Thermo Fisher Scientific). Cells were counted by trypan blue exclusion using a hemocytometer and adjusted to a cell density of […]. Thereafter, […] of cell suspension was aliquoted per well in a 96-well plate, resulting in 60,000 cells/well. Plates were shaken in the north-south and east-west direction during plating. Plated cells were incubated at 37° C/5% CO2 in a humidified cell culture incubator for 4-6 hours. During this time, incubation medium (Gibco™ CM4000, cell maintenance supplement pack; Thermo Fisher Scientific) was mixed with Gibco™ Geltrex™ (Thermo Fischer Scientific) at the appropriate GeltrexTM protein concentration. Following recovery, medium was removed from cells and replaced with freshly prepared incubation medium. Cells were incubated overnight in a cell culture incubator (37° C./5% CO2).
(§2) The next day the incubation medium was prepared by combining the hepatocyte maintenance supplement pack with Williams Medium E. The medium was warmed to 37° C. 1000× dimethyl sulfoxide compound stocks of the compounds of the Examples were prepared to the desired concentrations. 10 mM compound stocks in dimethyl sulfoxide were diluted (1 μL to 1 mL CM4000; final concentration=10 μM). Overlay medium was aspirated and […] dose solution added to the desired labeled 96 well plate. Cells were then dosed with compound (10 μM) and prototypical induces at the targeted concentrations either 50 i.tM for omeprazole (Sigma 0104/lotBCBF-2161V) or 10 i.tM for rifampicin (Sigma R3501/lot 011M1159V). A negative control, probenecid, was dosed at 10 i.tM (Sigma P8761/lot 013K0148).
(§3) On day 3, RNA isolation was performed. All surfaces were cleaned using RNase RNAy. Total RNA was isolated using MagMAX Express 96 RNA Isolation System (Life Technologies, AM1830). Briefly, hepatocytes were washed once with 1X PBS (phosphate buffered saline). 145 μL of RNA Lysis Buffer was added to each well and each well was mixed by pipetting several times. Lysate was then transferred to a well of a 96 well Binding Plate. Samples were then mixed with 20 μL magnetic beads coming from the kit. RNA bound to beads was then captured by the magnetic tip manifold and beads were washed with the wash solution. Samples were treated with TURBOTmDNase. After TURBOTmDNase treatment, RNA was rebound to beads and washed with the provided wash buffer an additional two times. Beads are then dried, and RNA was eluted with 50 μL elution buffer. The eluted mRNA was transferred from the wells to RNase-free sealable microtiter plates and stored at -80° C. until use.
(§4) Following mRNA isolation, reverse transcription (RT) reactions were performed using TaqmanTm Reverse Transcription Reagents (ThermoFisher Scientific). RT master mix was prepared by mixing 2.5 μL 10× RT buffer, 5.5 μL 25 mM MgCl2, 5μL deoxyNTP mixture, 1.25 50 mM random hexamers, 0.5 μL 2× RNAse inhibitor, 0.625 μL multiscript RTase (50U/μL) and 0.625 μL water. An aliquot of RT mix (16 μL) and an aliquot of mRNA sample (9 μL) was added to each well of a 96-well plate. The SimpliAmpTM Thermal cycler PCR System VIIA7 from Applied Biosystems was used for reverse transcription under the following conditions: segment 1: 25° C. for 10 minutes; segment 2: 45° C. for 45 minutes; segment 3: 95° C. for 5 minutes; and segment 4: 4° C. hold; with 1 cycle for each segment. […]
(In general: Quantitative PCR measures a nucleic acid by following its amplification.)

The next series deals with CYP3A4 mRNA. The series is described as follows: CYP3A4 Induction Assay (qPCR, human hepatocytes). The format is in vitro ADME. Particulars: cryopreserved human hepatocytes (plated), 10 μM compound, mRNA fold over vehicle (0.1% DMSO). How it is done: as §1, §2, §3, §4

Chain of human MALT-1 protein (Q9UDY8 whole entry): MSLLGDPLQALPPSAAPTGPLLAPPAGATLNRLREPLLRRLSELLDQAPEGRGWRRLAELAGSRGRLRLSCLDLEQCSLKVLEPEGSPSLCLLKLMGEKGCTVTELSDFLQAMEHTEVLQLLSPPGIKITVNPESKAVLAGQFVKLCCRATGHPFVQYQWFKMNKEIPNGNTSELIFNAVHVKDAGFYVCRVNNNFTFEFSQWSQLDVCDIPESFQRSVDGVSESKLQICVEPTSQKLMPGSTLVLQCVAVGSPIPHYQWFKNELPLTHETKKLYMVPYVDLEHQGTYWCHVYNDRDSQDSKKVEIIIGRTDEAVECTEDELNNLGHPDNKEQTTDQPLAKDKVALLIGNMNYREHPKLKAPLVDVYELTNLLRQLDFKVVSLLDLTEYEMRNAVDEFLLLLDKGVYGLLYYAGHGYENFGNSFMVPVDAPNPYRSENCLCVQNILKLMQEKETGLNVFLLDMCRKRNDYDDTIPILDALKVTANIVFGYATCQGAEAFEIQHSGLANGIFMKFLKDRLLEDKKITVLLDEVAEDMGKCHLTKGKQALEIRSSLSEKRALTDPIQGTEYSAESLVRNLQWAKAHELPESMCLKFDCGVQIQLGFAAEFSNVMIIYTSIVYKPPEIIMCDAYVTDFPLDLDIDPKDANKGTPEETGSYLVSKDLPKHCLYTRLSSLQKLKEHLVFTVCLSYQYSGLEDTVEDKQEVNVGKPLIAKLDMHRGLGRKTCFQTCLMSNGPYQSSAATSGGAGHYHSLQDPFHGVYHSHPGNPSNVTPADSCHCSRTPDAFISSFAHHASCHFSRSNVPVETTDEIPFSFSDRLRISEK

Take `CO[C@@H](C)c1c(Nc2ccc([C@H](N(C)C(=O)C3CCS(=O)(=O)CC3)C(F)(F)F)cc2F)cnc2sc(C)nc12` (single isomer, unassigned) [Example 10]: the EC50 came to 0.198 µM at human MALT-1 protein and 0.23 µM with OCI-LY3 IL6. In addition, the “CYP3A4 % of positive control (%)” value in the series on CYP 3A4 mRNA is “(84.8) %”. The fold induction at 1 day, 10 µM in the series on CYP3A4 mRNA was determined as 8.24.

For the compound `Cc1nc2c([C@@H](C)C(F)(F)F)c(Nc3ccc([C@H](N(C)C(=O)C4CCS(=O)(=O)CC4)C(F)(F)F)cc3)cnc2s1` (single isomer, unassigned) [Example 38], the EC50 at human MALT-1 protein turned out to be 0.156 µM; in the series with OCI-LY3 IL6, 0.19 µM. The “CYP3A4 % of positive control (%)” value in the series on CYP 3A4 mRNA is given as “(19.9) %”. Besides, the fold induction at 1 day, 10 µM with CYP3A4 mRNA worked out at 2.72.

For the compound `Cc1nc2c([C@H](C)C(F)(F)F)c(Nc3ccc([C@H](N(C)C(=O)C4CCS(=O)(=O)CC4)C(F)(F)F)cc3)cnc2s1` (single isomer, unassigned) [Example 39], the EC50 is 0.083 µM on human MALT-1 protein and 0.04 µM in the series on OCI-LY3 IL6. Further, in the series on CYP 3A4 mRNA, the “CYP3A4 % of positive control (%)” value is “(14.9) %”. In addition, the fold induction at 1 day, 10 µM in the series with CYP3A4 mRNA amounted to 2.29.

As for `CO[C@@H](C)c1c(NC(=O)Nc2cnc(-n3nccn3)c(C(F)(F)F)c2)cnc2sc(C)nc12` [Comparative Example B, reference compound], the “CYP3A4 Fold induction” value in the series with CYP 3A4 mRNA (mRNA fold over vehicle (0.1% DMSO)) was determined as 2.32. The “CYP3A4 % of positive control (%)” value with CYP 3A4 mRNA is “(25.3) %”.

For `CO[C@H](c1c(Nc2ccc([C@H](N(C)C(=O)C3CCS(=O)(=O)CC3)C(F)(F)F)cc2)cnc2sc(C)nc12)C(F)(F)F` [Example 2, N-methyl-1,1-dioxo-N-{(1S)-2,2,2-trifluoro-1-[4-({2-methyl-7-[(1R)-2,2,2-trifluoro-1-methoxyethyl][1,3]thiazolo[5,4-b]pyridin-6-yl}amino)phenyl]ethyl}-1λ^6-thiane-4-carboxamide], the EC50 on human MALT-1 protein was 0.19 µM; in the series on OCI-LY3 IL6, 0.11 µM. The “CYP3A4 % of positive control (%)” value in the series with CYP 3A4 mRNA is reported as “(2.19) %”. For the same compound, the fold induction at 1 day, 10 µM in the series with CYP3A4 mRNA came out at 1.13.

On to `CO[C@@H](C)c1c(Nc2ccc([C@@H](C(F)F)N(C)C(=O)C3CCS(=O)(=O)CC3)cc2)cnc2sc(C)nc12` [Example 4, N-{(1S)-2,2-difluoro-1-[4-({7-[(1S)-1-methoxyethyl]-2-methyl[1,3]thiazolo[5,4-b]pyridin-6-y1}amino)phenyl]ethyl} -N-methyl-1,1-dioxo-1λ^6-thiane-4-carboxamide], for which the EC50 is 0.158 µM on human MALT-1 protein and 1.33 µM in the series with OCI-LY3 IL6. In addition, the “CYP3A4 % of positive control (%)” value with CYP 3A4 mRNA is on record as “(16.1) %”. In addition, the fold induction at 1 day, 10 µM with CYP3A4 mRNA came to 1.98.

Regarding `CO[C@@H](c1c(Nc2ccc([C@H](N(C)C(=O)C3CCS(=O)(=O)CC3)C(F)(F)F)cc2)cnc2sc(C)nc12)C(F)F` [Example 5, N-{(1S)-1-[4-({7-[(1S)-2,2-difluoro-l-methoxyethyl]-2-methyl[1,3]thiazolo [5,4-b]pyridin-6-yl}amino)phenyl]-2,2,2-trifluoroethyl}-N-methyl-1,1-dioxo-1λ^6-thiane-4-carboxamide], the EC50 at human MALT-1 protein is 0.077 µM; in the series with OCI-LY3 IL6 it was 0.34 µM. In addition, in the series on CYP 3A4 mRNA, the “CYP3A4 % of positive control (%)” value is “(15.3) %”. The fold induction at 1 day, 10 µM in the series with CYP3A4 mRNA was 1.77.

On to `CO[C@H](c1c(Nc2ccc([C@@H](C(F)F)N(C)C(=O)C3CCS(=O)(=O)CC3)cc2)cnc2sc(C)nc12)C(F)F` [Example 6, N-{(1S)-1-[4-({7-[(1R)-2,2-difluoro-l-methoxyethyl]-2-methyl[1,3]thiazolo[5,4-b]pyridin-6-y1}amino)phenyl]-2,2-difluoroethyl}-N-methyl-1,1-dioxo-1λ^6-thiane-4-carboxamide], for which the EC50 at human MALT-1 protein was determined as 0.146 µM; with OCI-LY3 IL6, 0.21 µM. For the same compound, the “CYP3A4 % of positive control (%)” value in the series with CYP 3A4 mRNA is “(5.46) %”. Besides, in the series on CYP3A4 mRNA, the fold induction at 1 day, 10 µM was determined as 1.4.

`CCN(C(=O)C1CCS(=O)(=O)CC1)[C@@H](c1ccc(Nc2cnc3sc(C)nc3c2[C@H](C)OC)cc1)C(F)(F)F` [Example 7, N-ethyl-1,1-dioxo-N-{(1S)-2,2,2-trifluoro-1-[4-({7-[(1S)-1-methoxyethyl]-2-methyl[1,3]thiazolo [5,4-b]pyridin-6-yl}amino)phenyl]ethyl}-1λ^6-thiane-4-carboxamide]: the EC50 was found to be 0.135 µM at human MALT-1 protein and 0.14 µM with OCI-LY3 IL6. In addition, the “CYP3A4 % of positive control (%)” value in the series with CYP 3A4 mRNA is listed as “(12.7) %”. In the series on CYP3A4 mRNA, the fold induction at 1 day, 10 µM is 1.93.

For `CO[C@H](C)c1c(Nc2ccc([C@H](N(C)C(=O)C3CCS(=O)(=O)CC3)C(F)(F)F)cc2)cnc2sc(C)nc12` [Example 8, N-methyl-1,1-dioxo-N-{(1S)-2,2,2-trifluoro-1-[4-({7-[(1R)-1-methoxyethyl]-2-methyl[1,3]thiazolo [5,4-b]pyridin-6-yl}amino)phenyl]ethyl}-1λ^6-thiane-4-carboxamide], the EC50 at human MALT-1 protein turned out to be 0.099 µM; in the series on OCI-LY3 IL6, 0.07 µM. Moreover, the “CYP3A4 % of positive control (%)” value in the series on CYP 3A4 mRNA is on record as “(9.23) %”. In the series on CYP3A4 mRNA, the fold induction at 1 day, 10 µM amounted to 1.53.

Turning to `CO[C@@H](C)c1c(Nc2c(F)cc([C@H](N(C)C(=O)C3CCS(=O)(=O)CC3)C(F)(F)F)cc2F)cnc2sc(C)nc12` [Example 9, N-{(1S)-1-[3,5-difluoro-4-({7-[(1S)-1-methoxyethyl]-2-methyl[1,3]thiazolo[5,4-b]pyridin-6-yl}amino)phenyl]-2,2,2-trifluoroethyl}-N-methyl-1,1-dioxo-1λ^6-thiane-4-carboxamide], the EC50 was found to be 0.102 µM at human MALT-1 protein and 0.14 µM with OCI-LY3 IL6. The “CYP3A4 % of positive control (%)” value in the series on CYP 3A4 mRNA is “(−5.95) %”. The fold induction at 1 day, 10 µM in the series on CYP3A4 mRNA is 0.548.

By EC50 is commonly meant the concentration that produces a half-maximal response. What is called fold induction is the ratio of treated to control signal.

For the origin of these results see US20230312601A1, “THIAZOLO[5,4-B]PYRIDINE MALT-1 INHIBITORS” (AbbVie Inc., priority 2022, published 2023).
